# In US11180452B2, “Methods and compositions for selectively inhibiting pathogenic microbes” (priority 2019, dated 2021):
# Several values for one entry are separate records, joined by “and”; a condition that tells them apart may be missing. Equal entries are not always repeated. Where two headings read alike, the source gives them in different places.
# Experiments:
# Trichophyton rubrum = assay: MIC against Trichophyton rubrum; assay type: cell-based; conditions: Trichophyton rubrum Castellani Sabouraud ATCC: 28188; read-out: MIC
# Bacillus subtilis = Bacillus subtilis MIC / MBC; assay type: cell-based; conditions: for MBC: Bacillus subtilis NRRL: B-571, minimum bactericidal concentration; for MIC: Bacillus subtilis
# Candida glabrata = Candida glabrata MIC / MFC; assay type: cell-based; conditions: Nakaseomyces glabratus, Candida glabrata #584 (Table 2); for MFC: minimum fungicidal concentration, read-out: MFC; for MIC: read-out: MIC
# [1] = test system: Francisella tularensis subsp. Holarctica Strain LVSR NR-597; assay: microbe, parasite or virus in culture; assay type: cell-based
# NoSpin HepaRG cells = assay: HepaRG cytotoxicity, MTT assay EC50; assay type: cell-based, human; conditions: Homo sapiens, HepaRG; cytotoxicity EC50, Table 9
# Description: Additionally, the antimicrobial compounds were analyzed for cytotoxicity. […] We utilized the standard MTT assay (Promega CellTiter 96) and GraphPad Prism 7 software to determine EC50 values for each analogue. Briefly, 20,000 HepG2 cells in 200 μl of the ATCC recommended media were seeded in each well of a 96-well plate with a moisture barrier created in the outermost wells. The cells were allowed to attach overnight at 37° C., and then observed under phase contrast microscopy for proper morphological characteristics. […] Once incubations were complete, the spectrophotometric absorbance of the samples was measured at a wavelength of 595 nm. […] For the HepaRG assay, NoSpin HepaRG™ cells (Lonza, cat #NSHPRG) were thawed and plated with 20,000 cells per well. They were allowed to attach for 4 h (optimal DME profile per Lonza's testing) before dosing following the identical protocol as above.
# [2] = test system: Francisella tularensis strains; assay: microbe, parasite or virus in culture; assay type: cell-based
# Bacillus thuringiensis = assay type: cell-based; conditions: Bacillus thuringiensis Berliner ATCC: 10792; for MIC: Bacillus thuringiensis, read-out: MIC
# [3] = test system: Burkholderia thailandensis Brett et al ATCC: 700388; assay: microbe, parasite or virus in culture; assay type: cell-based
# N. gonorrhoeae = N. gonorrhoeae MIC; assay type: cell-based; conditions: Neisseria gonorrhoeae
# [4] = Toxicity in mice, body weight over 7 days; assay type: in vivo, Balb/c mice; conditions: for Animal body weight (kg) Day 0 / Animal body weight (kg) Day 1 / Animal body weight (kg) Day 2 / Animal body weight (kg) Day 3 / Animal body weight (kg) Day 4 / Animal body weight (kg) Day 5 / Animal body weight (kg) Day 6 / Animal body weight (kg) Day 7: mice, IP; for Animal body weight (kg) Day 0: Day 0, individual animals; for Animal body weight (kg) Day 1: Day 1, individual animals; for Animal body weight (kg) Day 2: Day 2, individual animals; for Animal body weight (kg) Day 3: Day 3, individual animals; for Animal body weight (kg) Day 4: Day 4, individual animals; for Animal body weight (kg) Day 5: Day 5, individual animals; for Animal body weight (kg) Day 6: Day 6, individual animals; for Animal body weight (kg) Day 7: Day 7, individual animals
# Description: The vehicle is 40% PEG300 solution in 0.9% NaCl. […] Thus, the compounds are useful for in vivo antimicrobial administration.
# [5] = Bacillus subtilis (Ehrenberg 1835) Cohn 1872 NRRL: B-571, read-out: MIC
# [6] = read-out: F. tularensis BSL-3 MIC, Strain 100
# [7] = read-out: F. tularensis BSL-3 MIC, strain HN-63
# [8] = read-out: F. tularensis BSL-3 MIC, strain LVS
# [9] = read-out: F. tularensis BSL-3 MIC, strain MA00-2987
# [10] = read-out: F. tularensis BSL-3 MIC, strain MO #1
# [11] = read-out: F. tularensis BSL-3 MIC, strain MO #2
# [12] = read-out: F. tularensis BSL-3 MIC, strain MO #3
# [13] = read-out: F. tularensis BSL-3 MIC, strain OR-96
# [14] = read-out: F. tularensis BSL-3 MIC, strain SCHU S4
# [15] = read-out: F. tularensis BSL-3 MIC, strain WY-96
# [16] = read-out: MAX, highest MIC over the Francisella tularensis strains
# [17] = read-out: MIN, lowest MIC over the Francisella tularensis strains
compound,measurement,setting,value
"COc1ccc2[nH]cc(Sc3ccc(Br)cc3)c2c1 [Compound 172E, 3-((4-bromophenyl)thio)-5-methoxy-1H-indole]",MIC,Trichophyton rubrum,2.08 µg/mL
same,MBC,Bacillus subtilis,6.25 µg/mL
same,MIC,Bacillus subtilis; [5],1.56 µg/mL
same,MFC,Candida glabrata,> 50 µg/mL
same,MIC,Candida glabrata,6.25 µg/mL
same,MIC,[1],0.78 µg/mL
same,EC50,NoSpin HepaRG cells,23.3 µg/mL
same,MIC50,[2],8 µg/mL
same,MIC,[2]; [6],> 8 µg/mL
same,MIC,[2]; [7],8 µg/mL
same,MIC,[2]; [8],> 8 µg/mL
same,MIC,[2]; [9],8 µg/mL
same,MIC,[2]; [10],5.33 µg/mL
same,MIC,[2]; [11],3.33 µg/mL
same,MIC,[2]; [12],8 µg/mL
same,MIC,[2]; [13],8 µg/mL
same,MIC,[2]; [14],4 µg/mL
same,MIC,[2]; [15],> 8 µg/mL
same,MIC,[2]; [16],> 8 µg/mL
same,MIC,[2]; [17],3.33 µg/mL
same,MBC,Bacillus thuringiensis,12.5 µg/mL
same,MIC,Bacillus thuringiensis,1.56 µg/mL
same,MIC,[3],> 50 µg/mL
same,MIC,N. gonorrhoeae; strain #167,< 0.39 µg/mL
same,MIC,N. gonorrhoeae; strain #203,3.13 µg/mL
same,MIC,N. gonorrhoeae; strain #205,3.13 µg/mL
"Oc1ccccc1Sc1c[nH]c2ccc(Br)cc12 [Compound 174AI, 2-((5-bromo-1H-indol-3-yl)thio)phenol]",MBC,Bacillus subtilis,6.25 µg/mL
same,MIC,Bacillus subtilis; [5],0.78 µg/mL
same,MIC,"Bacillus subtilis; strain B-571 (Table 4), read-out: Bacillus subtilis MIC",0.78 µg/mL
same,MIC,"Bacillus subtilis; strain B-1985, read-out: Bacillus subtilis MIC",0.78 µg/mL
same,MIC,"Bacillus subtilis; strain B-3665, read-out: Bacillus subtilis MIC",6.25 µg/mL
same,MIC,"Bacillus subtilis; strain B-14322, read-out: Bacillus subtilis MIC",3.13 µg/mL
same,MIC,"Bacillus subtilis; strain B-41090, read-out: Bacillus subtilis MIC",6.25 µg/mL
same,MIC,"Bacillus subtilis; strain B-41581, read-out: Bacillus subtilis MIC",6.25 µg/mL
same,MIC,"Bacillus subtilis; strain BD-594, read-out: Bacillus subtilis MIC",6.25 µg/mL
same,MFC,Candida glabrata,25 µg/mL
same,MIC,Candida glabrata,6.25 µg/mL
same,MIC,[1],2 µg/mL
same,EC50,NoSpin HepaRG cells,27.4 µg/mL
same,MIC50,[2],3 µg/mL
same,MIC,[2]; [6],6 µg/mL
same,MIC,[2]; [7],2 µg/mL
same,MIC,[2]; [8],4 µg/mL
same,MIC,[2]; [9],1.67 µg/mL
same,MIC,[2]; [10],1.33 µg/mL
same,MIC,[2]; [11],1.33 µg/mL
same,MIC,[2]; [12],2 µg/mL
same,MIC,[2]; [13],4 µg/mL
same,MIC,[2]; [14],4 µg/mL
same,MIC,[2]; [15],6 µg/mL
same,MIC,[2]; [16],6 µg/mL
same,MIC,[2]; [17],1.33 µg/mL
same,MBC,Bacillus thuringiensis,> 50 µg/mL
same,MIC,Bacillus thuringiensis,0.78 µg/mL
same,toxicity in mice by body weight,"[4]; 6-week-old Balb/c mice, body weight over 7 days, vehicle 40% PEG300 in 0.9% NaCl",did not have significant toxicity
same,Animal body weight (kg) Day 0,"[4]; 0.1 mg/kg, 0.1 mg/kg",0.023 kg (2×) and 0.022 kg
same,Animal body weight (kg) Day 1,"[4]; 0.1 mg/kg, 0.1 mg/kg",0.022 kg (2×) and 0.021 kg
same,Animal body weight (kg) Day 2,"[4]; 0.1 mg/kg, 0.1 mg/kg",0.023 kg and 0.022 kg and 0.021 kg
same,Animal body weight (kg) Day 3,"[4]; 0.1 mg/kg, 0.1 mg/kg",0.024 kg and 0.022 kg (2×)
same,Animal body weight (kg) Day 4,"[4]; 0.1 mg/kg, 0.1 mg/kg",0.024 kg and 0.022 kg (2×)
same,Animal body weight (kg) Day 5,"[4]; 0.1 mg/kg, 0.1 mg/kg",0.024 kg and 0.022 kg (2×)
same,Animal body weight (kg) Day 6,"[4]; 0.1 mg/kg, 0.1 mg/kg",0.024 kg and 0.022 kg (2×)
same,Animal body weight (kg) Day 7,"[4]; 0.1 mg/kg, 0.1 mg/kg",0.023 kg (2×) and 0.022 kg
same,Animal body weight (kg) Day 0,"[4]; 1 mg/kg, 1 mg/kg",0.022 kg and 0.024 kg and 0.026 kg
same,Animal body weight (kg) Day 1,"[4]; 1 mg/kg, 1 mg/kg",0.023 kg and 0.024 kg and 0.026 kg
same,Animal body weight (kg) Day 2,"[4]; 1 mg/kg, 1 mg/kg",0.023 kg and 0.025 kg and 0.026 kg
same,Animal body weight (kg) Day 3,"[4]; 1 mg/kg, 1 mg/kg",0.023 kg and 0.025 kg and 0.027 kg
same,Animal body weight (kg) Day 4,"[4]; 1 mg/kg, 1 mg/kg",0.022 kg and 0.025 kg and 0.026 kg
same,Animal body weight (kg) Day 5,"[4]; 1 mg/kg, 1 mg/kg",0.022 kg and 0.025 kg and 0.026 kg
same,Animal body weight (kg) Day 6,"[4]; 1 mg/kg, 1 mg/kg",0.022 kg and 0.024 kg and 0.026 kg
same,Animal body weight (kg) Day 7,"[4]; 1 mg/kg, 1 mg/kg",0.022 kg and 0.024 kg and 0.026 kg
same,Animal body weight (kg) Day 0,"[4]; 10 mg/kg, 10 mg/kg",0.022 kg and 0.026 kg and 0.024 kg
same,Animal body weight (kg) Day 1,"[4]; 10 mg/kg, 10 mg/kg",0.021 kg and 0.024 kg and 0.022 kg
same,Animal body weight (kg) Day 2,"[4]; 10 mg/kg, 10 mg/kg",0.022 kg and 0.024 kg and 0.023 kg
same,Animal body weight (kg) Day 3,"[4]; 10 mg/kg, 10 mg/kg",0.022 kg and 0.025 kg and 0.023 kg
same,Animal body weight (kg) Day 4,"[4]; 10 mg/kg, 10 mg/kg",0.022 kg and 0.026 kg and 0.024 kg
same,Animal body weight (kg) Day 5,"[4]; 10 mg/kg, 10 mg/kg",0.023 kg and 0.026 kg and 0.024 kg
same,Animal body weight (kg) Day 6,"[4]; 10 mg/kg, 10 mg/kg",0.022 kg and 0.026 kg and 0.024 kg
same,Animal body weight (kg) Day 7,"[4]; 10 mg/kg, 10 mg/kg",0.022 kg and 0.026 kg and 0.023 kg
same,MBC,[3],> 50 µg/mL
same,MIC,[3],12.5 µg/mL
same,MIC,N. gonorrhoeae; strain #167,< 0.39 µg/mL
"Fc1ccc2[nH]cc(Sc3ccc(Br)cc3)c2c1 [Compound 174E, 3-((4-bromophenyl)thio)-5-fluoro-1H-indole]",MIC,Trichophyton rubrum,2.01 µg/mL
same,MBC,Bacillus subtilis,3.13 µg/mL
same,MIC,Bacillus subtilis; [5],1.56 µg/mL
same,MIC,Candida glabrata,3.13 µg/mL
same,MIC,[1],0.78 µg/mL
same,EC50,NoSpin HepaRG cells,23.6 µg/mL
same,MBC,Bacillus thuringiensis,3.13 µg/mL
same,MIC,Bacillus thuringiensis,1.56 µg/mL
same,MIC,[3],> 50 µg/mL
same,MIC,N. gonorrhoeae; strain #167,< 0.39 µg/mL
same,MIC,N. gonorrhoeae; strain #203,1.56 µg/mL
same,MIC,N. gonorrhoeae; strain #205,1.56 µg/mL
